Earlier results on five compounds are cited in patent US9901554B2, “Biodegradable compositions suitable for controlled release” (INGELL TECHNOLOGIES HOLDING B.V., priority 2011, dated 2018).

Read-outs that look alike come from different tables or passages of the source.

For the compound `Cc1ccc(-c2cc(C(F)(F)F)nn2-c2ccc(S(N)(=O)=O)cc2)cc1` [celecoxib], the solubility in water entry (small molecules and peptide) is listed as “below 1 ug/ml”.

With `CN(CC(O)CO)C(=O)c1c(I)c(NC(=O)C(CO)CO)c(I)c(C(=O)N(C)CC(O)CO)c1I` (centres unmarked) [iobitridol], the solubility in water result (small molecules and peptide) was “above 5000 ug/ml”.

On to `CC1(C)O[C@@H]2C[C@H]3[C@@H]4CCC5=CC(=O)C=C[C@]5(C)[C@@]4(F)[C@@H](O)C[C@]3(C)[C@]2(C(=O)CO)O1` [triamcinolone acetonide], for which, for the setting “small molecules and peptide”, the solubility in water result is on record as “below 20 ug/ml”.

For the compound “bovine serum albumin: water soluble model protein (Sigma)”, where the note is “model proteins”, the solubility in water entry is “above 10000 μg/ml”.

In the case of “lysozyme: water soluble model protein of around 16 kDa (Sigma)”, the solubility in water result (model proteins) was “above 10000 μg/ml”.
